Data reported in US20230123334A1, “AMINO LIPID COMPOUND, PREPARATION METHOD THEREFOR, AND APPLICATION THEREOF” (SHENZHEN SHENXIN BIOTECHNOLOGY CO., LTD., priority 2020, published 2023).

tested on: HEK293 cells; assay: Preliminary screening as mRNA vectors, EGFP mRNA transfection of HEK293 cells; format: cell-based; conditions: EGFP mRNA 50 ng per well, 96-well plates; percentage of GFP fluorescent cells relative to total number of cells (Hoechst)
Experimental: Cell line: HEK293 cells (ATCC CRL-1573™)
Medium: DMEM supplemented with 10% fetal bovine serum (Invitrogen)
Screening: cell transfection on 96-well plates
Detection (readout): percentage of the number of GFP fluorescent cells relative to the total number of cells (the total number of cells was determined using nucleus dye Hoechst). Lipofectamine2000 (Invitrogen) was used as the positive control.
Method: the experimental method was basically the same with Example 4, and the mass of EGFP mRNA (TriLink) for transfection was 50 ng per well.

| SMILES | Absolute mRNA transfection efficiency in HEK293 cells [%] |
| --- | --- |
| CCCCCCCCCCCCSc1nc(NCCCCCC)nc(NCCN(C)C)n1 [Compound D1S12N6] | 0.0 |
| CCCCCCCCCCCCSc1nc(NCCCCCCC)nc(NCCN(C)C)n1 [Compound D1S12N7] | 1.5 |
| CCCCCCCCCCCCSc1nc(NCCCCCCCC)nc(NCCN(C)C)n1 [Compound D1S12N8] | 11.3 |
| CCCCCCCCCCCCSc1nc(NCCCCCCCCC)nc(NCCN(C)C)n1 [Compound D1S12N9] | 34.2 |
| CCCCCCCCCCCCSc1nc(NCCCCCCCCCCC)nc(NCCN(C)C)n1 [Compound D1S12N11] | 2.6 |
| CCCCCCCCCCCCNc1nc(NCCN(C)C)nc(SCCCCCCCCCCCC)n1 [Compound D1S12N12] | 1.7 |
| CCCCCCCCCCCCCNc1nc(NCCN(C)C)nc(SCCCCCCCCCCCC)n1 [Compound D1S12N13] | 1.2 |
| CCCCCCCCCCCCCCCNc1nc(NCCN(C)C)nc(SCCCCCCCCCCCC)n1 [Compound D1S12N15] | 0.5 |
| CCCCCCCCCCCCCCCCNc1nc(NCCN(C)C)nc(SCCCCCCCCCCCC)n1 [Compound D1S12N16] | 0.0 |
| CCCCCCCCCCCCCCCCCCNc1nc(NCCN(C)C)nc(SCCCCCCCCCCCC)n1 [Compound D1S12N18] | 0.0 |
| CCCCCCCCCCCCCCSc1nc(NCCCCCC)nc(NCCN(C)C)n1 [Compound D1S14N6] | 29.1 |
| CCCCCCCCCCCCCCSc1nc(NCCCCCCC)nc(NCCN(C)C)n1 [Compound D1S14N7] | 25.7 |
| CCCCCCCCCCCCCCSc1nc(NCCCCCCCC)nc(NCCN(C)C)n1 [Compound D1S14N8] | 56.7 |
| CCCCCCCCCCCCCCSc1nc(NCCCCCCCCC)nc(NCCN(C)C)n1 [Compound D1S14N9] | 39.0 |
| CCCCCCCCCCCCCCSc1nc(NCCCCCCCCCCC)nc(NCCN(C)C)n1 [Compound D1S14N11] | 14.3 |
| CCCCCCCCCCCCCCSc1nc(NCCCCCCCCCCCC)nc(NCCN(C)C)n1 [Compound D1S14N12] | 9.6 |
| CCCCCCCCCCCCCCSc1nc(NCCCCCCCCCCCCC)nc(NCCN(C)C)n1 [Compound D1S14N13] | 6.0 |
| CCCCCCCCCCCCCCCNc1nc(NCCN(C)C)nc(SCCCCCCCCCCCCCC)n1 [Compound D1S14N15] | 1.1 |
| CCCCCCCCCCCCCCCCNc1nc(NCCN(C)C)nc(SCCCCCCCCCCCCCC)n1 [Compound D1S14N16] | 1.8 |
| CCCCCCCCCCCCCCCCCCNc1nc(NCCN(C)C)nc(SCCCCCCCCCCCCCC)n1 [Compound D1S14N18] | 1.8 |
| CCCCCCCCCCCCCCCSc1nc(NCCCCCC)nc(NCCN(C)C)n1 [Compound D1S15N6] | 37.7 |
| CCCCCCCCCCCCCCCSc1nc(NCCCCCCC)nc(NCCN(C)C)n1 [Compound D1S15N7] | 66.1 |
| CCCCCCCCCCCCCCCSc1nc(NCCCCCCCC)nc(NCCN(C)C)n1 [Compound D1S15N8] | 98.3 |

| SMILES | Absolute mRNA transfection efficiency in HEK293 cells [%] |
| --- | --- |
| CCCCCCCCCCCCCCCSc1nc(NCCCCCCCCC)nc(NCCN(C)C)n1 [Compound D1S15N9] | 96.3 |
| CCCCCCCCCCCCCCCSc1nc(NCCCCCCCCCCC)nc(NCCN(C)C)n1 [Compound D1S15N11] | 11.9 |
| CCCCCCCCCCCCCCCSc1nc(NCCCCCCCCCCCC)nc(NCCN(C)C)n1 [Compound D1S15N12] | 4.8 |
| CCCCCCCCCCCCCCCSc1nc(NCCCCCCCCCCCCC)nc(NCCN(C)C)n1 [Compound D1S15N13] | 1.5 |
| CCCCCCCCCCCCCCCNc1nc(NCCN(C)C)nc(SCCCCCCCCCCCCCCC)n1 [Compound D1S15N15] | 0.3 |
| CCCCCCCCCCCCCCCCNc1nc(NCCN(C)C)nc(SCCCCCCCCCCCCCCC)n1 [Compound D1S15N16] | 3.2 |
| CCCCCCCCCCCCCCCCCCNc1nc(NCCN(C)C)nc(SCCCCCCCCCCCCCCC)n1 [Compound D1S15N18] | 3.8 |
| CCCCCCCCCCCCCCCCSc1nc(NCCCCCC)nc(NCCN(C)C)n1 [Compound D1S16N6] | 54.2 |
| CCCCCCCCCCCCCCCCSc1nc(NCCCCCCC)nc(NCCN(C)C)n1 [Compound D1S16N7] | 65.1 |
| CCCCCCCCCCCCCCCCSc1nc(NCCCCCCCC)nc(NCCN(C)C)n1 [Compound D1S16N8] | 40.3 |
| CCCCCCCCCCCCCCCCSc1nc(NCCCCCCCCC)nc(NCCN(C)C)n1 [Compound D1S16N9] | 26.4 |
| CCCCCCCCCCCCCCCCSc1nc(NCCCCCCCCCCC)nc(NCCN(C)C)n1 [Compound D1S16N11] | 19.8 |
| CCCCCCCCCCCCCCCCSc1nc(NCCCCCCCCCCCC)nc(NCCN(C)C)n1 [Compound D1S16N12] | 3.0 |
| CCCCCCCCCCCCCCCCSc1nc(NCCCCCCCCCCCCC)nc(NCCN(C)C)n1 [Compound D1S16N13] | 0.9 |
| CCCCCCCCCCCCCCCCSc1nc(NCCCCCCCCCCCCCCC)nc(NCCN(C)C)n1 [Compound D1S16N15] | 1.4 |
| CCCCCCCCCCCCCCCCNc1nc(NCCN(C)C)nc(SCCCCCCCCCCCCCCCC)n1 [Compound D1S16N16] | 0.9 |
| CCCCCCCCCCCCCCCCCCNc1nc(NCCN(C)C)nc(SCCCCCCCCCCCCCCCC)n1 [Compound D1S16N18] | 0.5 |
| CCCCCCCCCCCCCCCCCCSc1nc(NCCCCCC)nc(NCCN(C)C)n1 [Compound D1S18N6] | 42.6 |
| CCCCCCCCCCCCCCCCCCSc1nc(NCCCCCCC)nc(NCCN(C)C)n1 [Compound D1S18N7] | 63.0 |
| CCCCCCCCCCCCCCCCCCSc1nc(NCCCCCCCC)nc(NCCN(C)C)n1 [Compound D1S18N8] | 38.0 |
| CCCCCCCCCCCCCCCCCCSc1nc(NCCCCCCCCC)nc(NCCN(C)C)n1 [Compound D1S18N9] | 30.3 |
| CCCCCCCCCCCCCCCCCCSc1nc(NCCCCCCCCCCC)nc(NCCN(C)C)n1 [Compound D1S18N11] | 1.3 |
| CCCCCCCCCCCCCCCCCCSc1nc(NCCCCCCCCCCCC)nc(NCCN(C)C)n1 [Compound D1S18N12] | 2.3 |

| SMILES | Absolute mRNA transfection efficiency in HEK293 cells [%] |
| --- | --- |
| CCCCCCCCCCCCCCCCCCSc1nc(NCCCCCCCCCCCCC)nc(NCCN(C)C)n1 [Compound D1S18N13] | 0.2 |
| CCCCCCCCCCCCCCCCCCSc1nc(NCCCCCCCCCCCCCCC)nc(NCCN(C)C)n1 [Compound D1S18N15] | 0.5 |
| CCCCCCCCCCCCCCCCCCSc1nc(NCCCCCCCCCCCCCCCC)nc(NCCN(C)C)n1 [Compound D1S18N16] | 0.1 |
| CCCCCCCCCCCCCCCCCCNc1nc(NCCN(C)C)nc(SCCCCCCCCCCCCCCCCCC)n1 [Compound D1S18N18] | 0.0 |
| CCCCCCNc1nc(NCCN2CCOCC2)nc(SCCCCCC)n1 [Compound D2S6N6] | 0.4 |
| CCCCCCCNc1nc(NCCN2CCOCC2)nc(SCCCCCC)n1 [Compound D2S6N7] | 2.7 |
| CCCCCCCCNc1nc(NCCN2CCOCC2)nc(SCCCCCC)n1 [Compound D2S6N8] | 0.0 |
| CCCCCCCCCNc1nc(NCCN2CCOCC2)nc(SCCCCCC)n1 [Compound D2S6N9] | 0.8 |
| CCCCCCCCCCCNc1nc(NCCN2CCOCC2)nc(SCCCCCC)n1 [Compound D2S6N11] | 0.8 |
| CCCCCCCCCCCCNc1nc(NCCN2CCOCC2)nc(SCCCCCC)n1 [Compound D2S6N12] | 0.8 |
| CCCCCCCCCCCCCNc1nc(NCCN2CCOCC2)nc(SCCCCCC)n1 [Compound D2S6N13] | 0.2 |
| CCCCCCCCCCCCCCCNc1nc(NCCN2CCOCC2)nc(SCCCCCC)n1 [Compound D2S6N15] | 1.2 |
| CCCCCCCCCCCCCCCCNc1nc(NCCN2CCOCC2)nc(SCCCCCC)n1 [Compound D2S6N16] | 2.2 |
| CCCCCCCCCCCCCCCCCCNc1nc(NCCN2CCOCC2)nc(SCCCCCC)n1 [Compound D2S6N18] | 4.5 |
| CCCCCCSc1nc(NCCN2CCOCC2)nc(SCCCCCC)n1 [Compound D2S6S6] | 2.2 |
| CCCCCCCSc1nc(NCCN2CCOCC2)nc(SCCCCCC)n1 [Compound D2S6S7] | 0.6 |
| CCCCCCCCSc1nc(NCCN2CCOCC2)nc(SCCCCCC)n1 [Compound D2S6S8] | 5.0 |
| CCCCCCCCCSc1nc(NCCN2CCOCC2)nc(SCCCCCC)n1 [Compound D2S6S9] | 6.3 |
| CCCCCCCCCCSc1nc(NCCN2CCOCC2)nc(SCCCCCC)n1 [Compound D2S6S10] | 4.6 |
| CCCCCCCCCCCSc1nc(NCCN2CCOCC2)nc(SCCCCCC)n1 [Compound D2S6S11] | 7.4 |
| CCCCCCCCCCCCSc1nc(NCCN2CCOCC2)nc(SCCCCCC)n1 [Compound D2S6S12] | 1.5 |
